Measured values as given in US20050282743A1, “Molecular interactions in cells” (Arbor Vita Corporation, priority 2001, published 2005).
Ends that are not written are not given here. Peptide text beside a SMILES is read from it. * marks the point of attachment. Biotin = O=C1N[C@H]2[C@H](CS[C@H]2CCCCC(=O)*)N1

Legend:
Assay in all cases: G' assay (10 uM PL peptide), results of TABLE 7 and TABLE 12
Type in all cases: binding
[1] = target: T1, PDZ protein (GST-PDZ fusion) (Homo sapiens, UniProt Q9UDY2)
T1 construct: made in house; host or cells: E. coli (DH5alpha, BL21 or JM109)
T1 sequence (Q9UDY2 1-1190): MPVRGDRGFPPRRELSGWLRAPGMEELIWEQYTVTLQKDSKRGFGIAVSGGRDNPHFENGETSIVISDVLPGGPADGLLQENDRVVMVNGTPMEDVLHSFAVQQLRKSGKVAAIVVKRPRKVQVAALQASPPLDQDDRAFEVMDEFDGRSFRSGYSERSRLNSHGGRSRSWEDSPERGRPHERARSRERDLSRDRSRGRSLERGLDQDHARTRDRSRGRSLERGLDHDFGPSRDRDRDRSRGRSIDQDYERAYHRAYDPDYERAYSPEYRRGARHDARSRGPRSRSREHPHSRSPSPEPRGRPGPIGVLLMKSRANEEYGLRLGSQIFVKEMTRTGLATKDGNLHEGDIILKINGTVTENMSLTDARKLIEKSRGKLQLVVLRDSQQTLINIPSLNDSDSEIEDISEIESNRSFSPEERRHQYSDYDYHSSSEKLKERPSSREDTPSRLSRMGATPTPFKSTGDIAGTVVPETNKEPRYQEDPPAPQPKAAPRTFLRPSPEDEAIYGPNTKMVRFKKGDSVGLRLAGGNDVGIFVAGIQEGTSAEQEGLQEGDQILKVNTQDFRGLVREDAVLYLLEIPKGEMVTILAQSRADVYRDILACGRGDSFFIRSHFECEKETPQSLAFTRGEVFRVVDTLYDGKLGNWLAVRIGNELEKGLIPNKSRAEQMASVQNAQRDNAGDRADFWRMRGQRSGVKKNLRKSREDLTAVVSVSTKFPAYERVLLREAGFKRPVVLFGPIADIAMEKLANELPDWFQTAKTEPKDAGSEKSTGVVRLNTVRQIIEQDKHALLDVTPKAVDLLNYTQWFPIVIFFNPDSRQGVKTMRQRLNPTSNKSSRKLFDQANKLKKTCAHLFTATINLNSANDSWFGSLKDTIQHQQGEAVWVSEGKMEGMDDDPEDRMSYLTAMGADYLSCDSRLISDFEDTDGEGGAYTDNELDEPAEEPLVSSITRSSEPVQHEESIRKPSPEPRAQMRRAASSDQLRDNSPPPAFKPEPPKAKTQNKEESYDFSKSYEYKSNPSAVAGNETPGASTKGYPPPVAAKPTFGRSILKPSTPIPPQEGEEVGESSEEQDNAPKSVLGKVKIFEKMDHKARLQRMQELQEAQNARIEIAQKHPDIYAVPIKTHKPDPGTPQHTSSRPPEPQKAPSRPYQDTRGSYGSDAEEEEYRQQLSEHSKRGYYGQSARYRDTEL
Summary of the method: (§1)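 Biotin-PL peptide (N-term label), 10 uM vs GST-PDZ; protein 5 ug/ml by default. A450 nm binned: 1 = 0-1, 2 = 1-2, 3 = 2-3, 4 = 3-4, 5 = >4 on >2 repeats, 0 = no binding.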

[2] = target: T2, PDZ protein (GST-PDZ fusion) (Homo sapiens, UniProt O14908); conditions: PDZ TAX IP2, PDZ Domain 1
T2 construct: made in house; host or cells: E. coli (DH5alpha, BL21 or JM109)
T2 sequence (O14908 1-333): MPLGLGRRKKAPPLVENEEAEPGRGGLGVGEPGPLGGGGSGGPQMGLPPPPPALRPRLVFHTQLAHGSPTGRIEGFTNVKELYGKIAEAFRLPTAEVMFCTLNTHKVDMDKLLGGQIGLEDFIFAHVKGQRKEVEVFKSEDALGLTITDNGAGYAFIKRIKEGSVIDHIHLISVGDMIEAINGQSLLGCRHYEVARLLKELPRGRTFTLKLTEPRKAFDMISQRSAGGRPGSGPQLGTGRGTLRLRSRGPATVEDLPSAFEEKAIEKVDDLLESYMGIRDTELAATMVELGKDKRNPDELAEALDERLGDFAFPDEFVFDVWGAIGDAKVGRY
Summary of the method: as §1

[3] = target: T3, PDZ protein (GST-PDZ fusion) (Homo sapiens, UniProt P50479); conditions: PDZ LIM RIL, PDZ Domain 1
T3 construct: made in house; host or cells: E. coli (DH5alpha, BL21 or JM109)
T3 sequence (P50479 1-330): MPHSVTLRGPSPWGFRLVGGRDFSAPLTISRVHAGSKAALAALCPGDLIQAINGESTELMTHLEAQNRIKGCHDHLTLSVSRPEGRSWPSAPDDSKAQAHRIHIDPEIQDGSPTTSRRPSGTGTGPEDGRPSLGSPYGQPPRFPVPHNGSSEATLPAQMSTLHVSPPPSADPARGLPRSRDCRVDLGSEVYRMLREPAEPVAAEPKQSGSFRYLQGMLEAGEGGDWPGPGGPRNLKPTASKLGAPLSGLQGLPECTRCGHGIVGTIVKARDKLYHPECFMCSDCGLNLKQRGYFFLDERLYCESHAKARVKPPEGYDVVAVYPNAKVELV
Summary of the method: as §1

Compound | Classification [3] | Classification ([1]; PDZ ZO-2, PDZ Domain 1) | further results
CC[C@H](C)[C@H](NC(=O)[C@H](CCCCN)NC(=O)[C@@H](NC(=O)[C@H](CO)NC(=O)[C@@H]1CCCN1C(=O)[C@H](Cc1ccccc1)NC(=O)[C@@H](NC(=O)[C@@H](NC(=O)[C@H](CCCNC(=N)N)NC(=O)[C@H](CCC(=O)O)NC(=O)[C@H](CC(C)C)NC(=O)[C@H](CC(C)C)NC(=O)[C@H](CC(C)C)NC(=O)[C@@H](NC(=O)CNC(=O)[C@@H](NC(=O)CCCC[C@@H]1SC[C@@H]2NC(=O)N[C@@H]21)C(C)C)[C@@H](C)O)C(C)C)[C@@H](C)CC)C(C)C)C(=O)N[C@@H](C)C(=O)N[C@H](C(=O)N[C@@H](CC(C)C)C(=O)N[C@H](C(=O)O)C(C)C)[C@@H](C)O [Adenovirus E4 Type9] | – | – | Classification ([1]; PDZ ZO-2, PDZ Domain 1, PL peptide 10 uM): 3 (A450 nm 2-3)
CC[C@H](C)[C@H](NC(=O)[C@H](CC(=O)O)NC(=O)[C@H](CCC(=O)O)NC(=O)[C@H](CCCNC(=N)N)NC(=O)[C@@H](NC(=O)CCCC[C@@H]1SC[C@@H]2NC(=O)N[C@@H]21)[C@@H](C)O)C(=O)N[C@@H](Cc1ccc(O)cc1)C(=O)N[C@H](C(=O)N[C@@H](CC(N)=O)C(=O)N[C@@H](Cc1ccc(O)cc1)C(=O)N1CCC[C@H]1C(=O)N[C@H](C(=O)N[C@@H](Cc1ccccc1)C(=O)N[C@@H](CO)C(=O)N[C@@H](CCCNC(=N)N)C(=O)N[C@@H](CCCNC(=N)N)C(=O)N1CCC[C@H]1C(=O)N[C@@H](CCCCN)C(=O)N[C@H](C(=O)N[C@@H](CCCNC(=N)N)C(=O)N[C@H](C(=O)O)C(C)C)[C@@H](C)O)[C@@H](C)O)C(C)C [DNAM-1] (Biotin-TREDIYVNYPTFSRRPKTRV-OH; C-terminus assumed) | – | 3 (A450 nm 2-3) | –
CC(C)C[C@H](NC(=O)[C@H](C)NC(=O)[C@@H](NC(=O)[C@H](CCC(=O)O)NC(=O)[C@H](CCCNC(=N)N)NC(=O)[C@H](CCCNC(=N)N)NC(=O)CNC(=O)[C@H](CCC(N)=O)NC(=O)[C@H](CC(C)C)NC(=O)[C@H](CCCNC(=N)N)NC(=O)CNC(=O)CNC(=O)[C@H](CCCNC(=N)N)NC(=O)[C@H](C)NC(=O)[C@H](CO)NC(=O)[C@H](CCCNC(=N)N)NC(=O)CNC(=O)CNC(=O)[C@H](C)NC(=O)[C@H](C)NC(=O)CCCC[C@@H]1SC[C@@H]2NC(=O)N[C@@H]21)[C@@H](C)O)C(=O)O [HPV E6 33 (modified)] (Biotin-AAGGRSARGGRLQGRRETAL-OH; C-terminus assumed) | – | 1 (A450 nm 0-1) | –
CC(C)C[C@H](NC(=O)[C@H](CCCNC(=N)N)NC(=O)CNC(=O)CNC(=O)[C@H](CCCNC(=N)N)NC(=O)[C@H](C)NC(=O)[C@@H]1CCCN1C(=O)[C@H](CCCNC(=N)N)NC(=O)CNC(=O)CNC(=O)[C@@H](NC(=O)[C@H](C)NC(=O)CCCC[C@@H]1SC[C@@H]2NC(=O)N[C@@H]21)C(C)C)C(=O)N[C@@H](CCC(N)=O)C(=O)NCC(=O)N[C@@H](CCCNC(=N)N)C(=O)N[C@@H](CCCNC(=N)N)C(=O)N[C@@H](CCC(N)=O)C(=O)N[C@H](C(=O)N[C@@H](CCC(N)=O)C(=O)N[C@H](C(=O)O)C(C)C)[C@@H](C)O [HPV E6 58 (modified)] (Biotin-AVGGRPARGGRLQGRRQTQV-OH; C-terminus assumed) | – | 3 (A450 nm 2-3) | –
CC(C)C[C@H](NC(=O)[C@H](C)NC(=O)[C@H](CO)NC(=O)CNC(=O)[C@@H](NC(=O)CCCC[C@@H]1SC[C@@H]2NC(=O)N[C@@H]21)[C@@H](C)O)C(=O)N[C@@H](CCC(N)=O)C(=O)N[C@@H](C)C(=O)N[C@@H](Cc1c[nH]c2ccccc12)C(=O)N[C@@H](CCCNC(=N)N)C(=O)N[C@@H](Cc1c[nH]cn1)C(=O)N[C@H](C(=O)N[C@@H](CO)C(=O)N[C@@H](CCCNC(=N)N)C(=O)N[C@@H](CCC(N)=O)C(=O)N[C@@H](C)C(=O)N[C@H](C(=O)N[C@@H](CCC(=O)O)C(=O)N[C@@H](CO)C(=O)N[C@H](C(=O)N[C@H](C(=O)O)C(C)C)[C@@H](C)O)[C@@H](C)O)[C@@H](C)O [HPV E6 #66 (modified)] (Biotin-TGSALQAWRHTSRQATESTV-OH; C-terminus assumed) | – | – | Classification [2]: 2 (A450 nm 1-2)
CC[C@H](C)[C@H](NC(=O)[C@H](CCC(N)=O)NC(=O)CCCC[C@@H]1SC[C@@H]2NC(=O)N[C@@H]21)C(=O)N[C@@H](CO)C(=O)N1CCC[C@H]1C(=O)NCC(=O)NCC(=O)N[C@@H](CC(C)C)C(=O)N[C@@H](CCC(=O)O)C(=O)N1CCC[C@H]1C(=O)N1CCC[C@H]1C(=O)N[C@@H](CO)C(=O)N[C@@H](CCC(=O)O)C(=O)N[C@@H](CCCCN)C(=O)N[C@@H](Cc1c[nH]cn1)C(=O)N[C@@H](Cc1ccccc1)C(=O)N[C@@H](CCCNC(=N)N)C(=O)N[C@@H](CCC(=O)O)C(=O)N[C@H](C(=O)N[C@@H](CCC(=O)O)C(=O)N[C@H](C(=O)O)C(C)C)[C@@H](C)O [Tax] | 1 (A450 nm 0-1) | – | Classification [2]: 2 (A450 nm 1-2)
A2AA_HUMAN (modified) (Biotin-HDFRRAFKKILARGDRKRIV; not fully specified) | – | – | Classification ([1]; PDZ ZO-2, PDZ Domain 2): 2 (A450 nm 1-2)
CKR5_HUMAN (ERASSVYTRSTGEQEISVGL) | – | – | Classification [2]: 1 (A450 nm 0-1)
GPVPGEPAKPKTSAHHATFV (Biotin-GPVPGEPAKPKTSAHHATFV) | – | 1 (A450 nm 0-1) | –
PPATPSPRLALPAHHNATRL (Biotin-PPATPSPRLALPAHHNATRL) [Na+/Pi cotransporter 2] | – | 1 (A450 nm 0-1) | –
QATSRNGHSARQHVVADTEL (Biotin-QATSRNGHSARQHVVADTEL) [CD34] | 1 (A450 nm 0-1) | – | –

Now from value to compound, other results behind:

Classification [3] | Compound | Classification ([1]; PDZ ZO-2, PDZ Domain 1) | further results
5 (A450 nm of 4 more than 2× repeated) | CC(C)C[C@H](NC(=O)[C@H](CC(=O)O)NC(=O)[C@H](CO)NC(=O)[C@H](CCC(=O)O)NC(=O)CNC(=O)[C@H](Cc1ccc(O)cc1)NC(=O)[C@H](CC(C)C)NC(=O)[C@H](C)NC(=O)[C@H](CO)NC(=O)[C@H](CO)NC(=O)[C@H](Cc1ccccc1)NC(=O)[C@H](C)NC(=O)[C@H](C)NC(=O)[C@H](Cc1ccc(O)cc1)NC(=O)[C@H](CC(=O)O)NC(=O)[C@H](CC(C)C)NC(=O)[C@H](C)NC(=O)CNC(=O)[C@@H]1CCCN1C(=O)[C@@H](NC(=O)CCCC[C@@H]1SC[C@@H]2NC(=O)N[C@@H]21)C(C)C)C(=O)O [a-actinin 2] (Biotin-VPGALDYAAFSSALYGESDL-OH; C-terminus assumed) | – | Classification [2]: 5 (A450 nm of 4 more than 2× repeated)
2 (A450 nm 1-2) | ELLQFCRTPNPALKNGQYWV (Biotin-ELLQFCRTPNPALKNGQYWV) | 5 (A450 nm of 4 more than 2× repeated) | Classification ([1]; PDZ ZO-2, PDZ Domain 2): 1 (A450 nm 0-1)
1 (A450 nm 0-1) | LASKSAEEGKQIPDSLSTDL (Biotin-LASKSAEEGKQIPDSLSTDL) [Dock2] | – | –
2 (A450 nm 1-2) | PYSELNYETSHYPASPDSWV (Biotin-PYSELNYETSHYPASPDSWV) [catenin - delta 2] | – | –
5 (A450 nm of 4 more than 2× repeated) | TQGFPGPATWRRISSLESEV | – | Classification [2]: 4 (A450 nm 3-4)
2 (A450 nm 1-2) | VHDAESSDEDGYDWGPATDL (Biotin-VHDAESSDEDGYDWGPATDL) [zona occludens 3 (ZO-3)] | – | –
